Data on three molecules can be found in US5438118A, “HIV protease inhibitors” (SmithKline Beechman Corp., priority 1993, dated 1995).

A word on the Ki: it is a measure of affinity in units of concentration, obtained from inhibition or displacement. Low values mean tighter binding, high ones weaker binding.

For this assay, the target named is T1, rHIV protease (Human immunodeficiency virus type 1 group M subtype B, UniProt P03366).
T1 construct: the reaction is initiated with purified 0.01-1 mg HIV protease
Kind of assay: Inhibition of hydrolysis of a peptide substrate by rHIV protease (HPLC, Dixon analysis). Format: biochemical, HIV. As to conditions: substrate Ac-Arg-Ala-Ser-Gln-Asn-Tyr-Pro-Val-Val-NH2, MENDT buffer pH 6.0, 37° C.; Ki from Dixon analysis. On the procedure:
The data in the following table is representative of inhibition produced by these compounds.
A typical assay contains […] MENDT buffer (50 mM Mes (pH 6.0; 2-(N-morpholino)ethanesulfonic acid), 1 mM EDTA, 1 mM dithiothreitol, 200 mM NaCl, 0.1% Triton X100); 2, 3, or 6 mM N-acenyl-L-arginyl-L-alanyl-L-seryl-L-glutaminyl-L-asparaginyl-L-tyrosyl-L-prolyl-L-valyl-L-valinamide (Ac-Arg-Ala-Ser-Gln-Asn-Tyr-Pro-Val-Val-[…]NH2; Km =7 mM); and micromolar and sub-micromolar concentrations of synthetic compounds. Following incubation at 37° C. for several min, the reaction is initiated with purified 0.01-1 mg HIV protease. Reaction mixtures (37° C.) are quenched after 10-20 min with an equal volume of cold 0.6N trichloroacetic acid, and, following centrifugation to remove precipitated material, peptidolysis products are analyzed by reverse phase HPLC (Beckman Ultrasphere ODS, 4.5 mm×[…]; mobile phase; 5-20% acetonitrile/H2 O--0.1% TFA (15 min), 20% acetonitrile/H2 O--0.1% TFA (5 min) at 1.5 mL/min, detection at 220 nm. The elution positions of Ac-Arg-Ala-Ser-Gln-Asn-Tyr-Pro-Val-Val-NH2 (17-18 min) and Ac-Arg-Ala-Ser-Gln-Asn-Tyr (10-11 min) are confirmed with authentic material. Initial rates of Ac-Arg-Ala-Ser-Gln-Asn-Tyr formation are determined from integration of these peaks, and typically, the inhibitory properties of the synthetic compounds are determined from slope/intercept analysis of a plot of 1/v vs. [inhibitor] (Dixon analysis). Ki values resulting from this type of primary analysis are accurate for competitive inhibitors only, and under conditions in which the Michaelis constant of the substrate used is well determined.
For the molecule `COC(=O)[C@@H](NC(=O)[C@@H](NC(=O)C(C)N1CCC(C(C)NC(=O)[C@@H](N)Cc2ccccc2)=CC(Cc2ccccc2)C1)C(C)C)C(C)C` (stereo partly drawn) [Example 3, 2-[3-benzyl-5-(1-(phenylalanyl)amino-ethyl)-2,3,6,7-tetrahydro-1H-azepin-1-yl]-1-oxo-propyl-valinyl-valine methyl ester], affinity was put at a Ki of 3.6 µM.

On to `COC(=O)[C@@H](NC(=O)[C@@H](NC(=O)C(C)N1CCC(C(C)NC(=O)[C@H](C)N)=CC(Cc2ccccc2)C1=O)C(C)C)C(C)C` (stereo partly drawn) [Example 1, 2-[3-benzyl-5-(1-alanylamino-ethyl)-2,3,6,7-tetrahydro-1H-2-oxo-azepin-1-yl]-1-oxo-propyl-valinyl-valine methyl ester], for which the affinity, expressed as Ki, was 100 µM.

With `COC(=O)[C@@H](NC(=O)[C@@H](NC(=O)C(C)N1CCC(C(C)NC(=O)[C@H](C)N)=CC(Cc2ccccc2)C1)C(C)C)C(C)C` (stereo partly drawn) [Example 2, 2-[3-benzyl-5-(1-alanylamino-ethyl)-2,3,6,7-tetrahydro-1H-azepin-1-yl]-1-oxo-propyl-valinyl-valine methyl ester], the affinity, expressed as Ki, was 0.6 µM.
